Results on five compounds are retold here after paper PMC4359537, “Pharmacological characterisation of murine α4β1δ GABAA receptors expressed in Xenopus oocytes” (BMC Neuroscience, 2015).

Several values for one entry are separate records, joined by “and”; a condition that tells them apart may be missing. Equal entries are not always repeated. Entries after “also recorded” stand apart in the source; their conditions may differ. Where two headings read alike, the source gives them in different places.

One assay deals with α2β1γ2 receptors. The following applies: Xenopus oocytes; cited from earlier work.
Another assay has as its target T1, α4β1δ receptors (UniProt P18506+P50571+Q9D6F4).
T1 construct: expressed in transfected cells; host or cells: Xenopus laevis oocytes, cDNA-injected (pRK5 vector), ratio 1:1:5
Put plainly: Two-electrode voltage-clamp of murine α4β1δ GABAA receptors expressed in Xenopus oocytes. It is filed as cell-based, mouse. As to the method: (§1) Oocytes from Xenopus laevis toads were prepared as described. […] To obtain free oocytes, ovarian lobes were cut into pieces and incubated in OR2 (85 mM NaCl, 5 mM HEPES, 1 mM MgCl2, pH adjusted to 7.6 with KOH) supplemented with 2-2.5 mg/mL collagenase type 1 (Lorne Laboratories, Danehill, UK) for 3-4 hrs. Oocytes were washed several times in OR2 and subsequently in Barth’s solution (88 mM NaCl, 1 mM KCl, 0.33 mM Ca(NO3)2, 0.41 mM CaCl2, 0.82 mM MgSO4, 2.4 mM NaHCO3, 10 mM HEPES, pH adjusted to 7.6 with NaOH) to isolate cells and remove follicular membranes. After preparation, the oocytes were injected with 27 or 55 nL of 30 ng/μL cDNA in a ratio of 1:1 (α4β1) or 1:1:5 (α4β1δ). Oocytes were subsequently maintained at 18°C in Barth’s solution supplemented with gentamycin (Invitrogen, Paisley, UK).
(§2) Electrodes were filled with 3 M KCl and had resistances of 0.5 to 3 MΩ. The oocytes were clamped at a holding potential of -60 mV and were perfused with buffer (100 mM NaCl, 2 mM KCl, 2 mM CaCl2, 1 mM MgCl2, 5 mM HEPES, pH adjusted to 7.4 with NaOH) throughout the recordings. All currents were adjusted when necessary for voltage drop using equation 1:1 I=Imeasured⋅Vh−Vrev/Vh−Vrev+ΔV
(§3) Drugs were applied using a fast application system coupled to a small bath volume ([…]), enabling drug onset times of ~ 10 ms.
(§4) For each co-application, the peak-response was measured. […] All monophasic inhibition-curves were fitted to a modified version of equation 2.
Normalized responses were pooled and plotted as mean ± SEM from at least four different oocytes taken from at least two different Xenopus toads. For statistical evaluation, a repeated measures ANOVA with Dunnett’s post test was used. The significance level was set at *P < 0.05, **P < 0.01, ***P < 0.001. For inhibition curves, an F-test was performed to determine whether the data was either monophasic or biphasic.

The next assay has as its system α6β3δ receptors. The following applies: cited from earlier work.
Another assay deals with α1β2γ2 receptors. Conditions: steady-state GABA responses, HEK293 cells; cited from earlier work.
In the next assay the target is T2, α4β1 receptors (Mus musculus, UniProt P50571+Q9D6F4).
T2 construct: expressed in transfected cells; host or cells: Xenopus laevis oocytes, cDNA-injected (pRK5 vector), ratio 1:1
T2 sequence (Q9D6F4 36-552): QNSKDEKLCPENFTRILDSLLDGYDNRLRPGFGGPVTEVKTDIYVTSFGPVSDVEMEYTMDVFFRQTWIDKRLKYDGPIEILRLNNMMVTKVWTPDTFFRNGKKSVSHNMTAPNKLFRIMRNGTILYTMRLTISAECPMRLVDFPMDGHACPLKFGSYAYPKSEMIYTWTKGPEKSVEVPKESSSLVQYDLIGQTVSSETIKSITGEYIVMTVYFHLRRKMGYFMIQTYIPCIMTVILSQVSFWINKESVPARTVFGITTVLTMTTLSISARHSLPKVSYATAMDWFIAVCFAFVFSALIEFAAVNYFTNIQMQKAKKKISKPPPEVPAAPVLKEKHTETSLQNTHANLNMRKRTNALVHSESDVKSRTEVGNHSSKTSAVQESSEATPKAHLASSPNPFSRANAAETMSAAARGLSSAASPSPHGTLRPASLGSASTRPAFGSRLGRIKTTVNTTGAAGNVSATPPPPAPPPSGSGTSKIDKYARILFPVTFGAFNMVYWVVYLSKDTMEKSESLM
T2 sequence (P50571 26-474): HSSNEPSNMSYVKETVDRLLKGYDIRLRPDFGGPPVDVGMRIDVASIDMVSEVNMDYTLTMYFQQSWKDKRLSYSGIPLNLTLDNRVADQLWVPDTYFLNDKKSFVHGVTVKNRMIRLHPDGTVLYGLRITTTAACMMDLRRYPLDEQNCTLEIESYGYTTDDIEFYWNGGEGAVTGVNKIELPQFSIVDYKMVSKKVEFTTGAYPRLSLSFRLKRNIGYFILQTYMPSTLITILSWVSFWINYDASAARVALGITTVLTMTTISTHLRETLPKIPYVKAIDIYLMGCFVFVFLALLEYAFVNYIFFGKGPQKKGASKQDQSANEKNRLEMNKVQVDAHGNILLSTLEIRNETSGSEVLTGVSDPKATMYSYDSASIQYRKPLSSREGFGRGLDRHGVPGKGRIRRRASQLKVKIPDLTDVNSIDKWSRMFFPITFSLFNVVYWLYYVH
Put plainly: Two-electrode voltage-clamp of murine α4β1 GABAA receptors expressed in Xenopus oocytes. It counts as cell-based. The following applies: for EC50: GABA-activated peak currents, oocytes clamped at -60 mV. As to the method:
as §1, §2, §3, §4

[1] abbreviates: inhibition of peak response to GABA EC20 after pre-application.
Setting [2] is: inhibition of steady-state (desensitized) response after 70 s co-application with GABA EC75 (3 μM).
The mark [3] stands for this setting: Hill coefficient of GABA concentration response curve.
Where [4] appears, read: depending upon expression levels.
[5] abbreviates: GABA EC75 (8 μM), biphasic inhibition.
The mark [6] stands for this setting: inhibition of peak response to GABA EC75 (3 μM), 1 min pre-incubation.

T1 sequence (Q9D6F4 36-552): as the sequence (Q9D6F4 36-552) above
T1 sequence (P50571 26-474): as the sequence (P50571 26-474) above
T1 sequence (P18506 17-449 limits assumed): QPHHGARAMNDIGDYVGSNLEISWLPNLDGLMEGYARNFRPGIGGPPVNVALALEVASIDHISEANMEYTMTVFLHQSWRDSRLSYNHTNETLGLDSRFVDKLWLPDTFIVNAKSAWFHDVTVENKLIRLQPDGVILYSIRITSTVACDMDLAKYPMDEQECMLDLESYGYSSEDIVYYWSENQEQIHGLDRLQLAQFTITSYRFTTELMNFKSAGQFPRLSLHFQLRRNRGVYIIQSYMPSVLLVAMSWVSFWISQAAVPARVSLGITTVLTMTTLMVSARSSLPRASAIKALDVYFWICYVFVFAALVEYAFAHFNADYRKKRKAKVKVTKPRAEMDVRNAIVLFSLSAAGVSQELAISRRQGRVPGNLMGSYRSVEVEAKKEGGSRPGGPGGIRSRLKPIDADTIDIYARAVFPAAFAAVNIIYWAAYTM

As for `O=C(N/N=C/c1ccccc1O)c1ccccc1O` [SCS, salicylidine salicylhydrazide], at α2β1γ2 receptors, the IC50 was 4.36 nM and the maximum inhibition is listed as ~ 33%. For the same compound, on α4β1δ receptors (GABA EC20, incomplete inhibition of the GABA current), the “steady-state level of inhibition” value is 67.2 ± 3.2 % of control. Besides, at α4β1δ receptors (setting [1]), the IC50 was 4.2 nM and the “pIC50 ± SEM” value is 8.37 ± 0.25.
As to `[Cl][Cu][Cl]` [Cu^2+], in the assay with α6β3δ receptors (HEK293), the “maximal inhibition of the steady-state response” value is given as ~ 68%. In addition, the IC50 at α6β3δ receptors (steady-state GABA responses, HEK293 cells) is 65 nM; at α1β2γ2 receptors it was 85000 nM; at α4β1δ receptors (setting [2]), 820 nM. The “nH (± SEM)” value on α4β1δ receptors (Hill slope of inhibition curve, steady-state response, GABA EC75) is recorded as −1.2 ± 0.13. For the same compound, the “maximal inhibition of desensitized GABA responses” value at α4β1δ receptors (at 10 μM, GABA EC75, oocytes) came to 98 % inhibition. Further, at α4β1δ receptors (setting [2]), the “pIC50 ± SEM” value is given as 6.09 ± 0.04.
Turning to `NCCCC(=O)O` [GABA, γ-Aminobutyric acid], the EC50 at α4β1 receptors (read-out: EC50) is 2700 nM; at α4β1 receptors (read-out: pEC50 ± SEM (converted)), 2750 nM. Besides, the “nH (± SEM)” value on α4β1 receptors (setting [3]) was 0.87 and 0.87 ± 0.079; at α4β1δ receptors (setting [3]) it was 1.1 and 1.1 ± 0.11. Further, the figures for the “maximal currents to GABA” value at α4β1 receptors (setting [4]) and at α4β1δ receptors (setting [4]) were 100 to 3000 nA and 300 to 3000 nA, respectively.
For the compound `[Cl-].[Cl-].[Zn+2]` [Zn^2+], the “share of the total inhibition, high potency component (IC50A)” value on α4β1 receptors (setting [5]) is given as ~ 25%. Besides, the “share of the total inhibition, lower potency component (IC50B)” value on α4β1 receptors (setting [5]) is ~ 75%. In addition, at α4β1 receptors (GABA EC75 (8 μM), high potency component of two-site fit), the “pIC50A ± SEM” value came out at 9.87 ± 0.22. Moreover, the IC50 at α4β1 receptors (GABA EC75 (8 μM), high potency component of two-site fit, read-out: IC50A) was 0.13 nM; at α4β1 receptors (GABA EC75 (8 μM), lower potency component of two-site fit, read-out: IC50B) it was 56 nM; at α4β1δ receptors (setting [6]) it was 3300 nM. In addition, on α4β1 receptors (GABA EC75 (8 μM), lower potency component of two-site fit), the “pIC50B ± SEM” value is 7.25 ± 0.13. Also, the “nH (± SEM)” value on α4β1 receptors (Hill slope of IC50B component, GABA EC75) is -1.1 ± 0.13; at α4β1δ receptors (Hill slope of inhibition curve, peak response, GABA EC75) it was −0.75 ± 0.041. Moreover, on α4β1δ receptors (from low micromolar to mid nanomolar), the “potency shift in IC50 values, α4β1δ versus α4β1” value is listed as “approximately 60 fold”. For the same compound, the “pIC50 ± SEM” value against α4β1δ receptors (setting [6]) worked out at 5.48 ± 0.03.
Regarding `C[C@]12CC[C@@H](O)C[C@H]1CC[C@@H]1[C@@H]2CC[C@]2(C)[C@@H](C(=O)CO)CC[C@@H]12` [THDOC, tetrahydro-deoxycorticosterone], the “potentiation of GABA peak-response” value at α4β1δ receptors (THDOC 30 and 100 nM co-applied with GABA EC7, P < 0.05) is reported as “significantly increased; also recorded: significant increase; also recorded: able to potentiate”.
